Laboratory results as given in patent US9834558B2, “Substituted bridged urea analogs as sirtuin modulators” (GLAXOSMITHKLINE LLC, priority 2013, dated 2017).

Biological target: T1, SIRT1 (Homo sapiens, UniProt Q96EB6)
T1 sequence (Q96EB6 1-747): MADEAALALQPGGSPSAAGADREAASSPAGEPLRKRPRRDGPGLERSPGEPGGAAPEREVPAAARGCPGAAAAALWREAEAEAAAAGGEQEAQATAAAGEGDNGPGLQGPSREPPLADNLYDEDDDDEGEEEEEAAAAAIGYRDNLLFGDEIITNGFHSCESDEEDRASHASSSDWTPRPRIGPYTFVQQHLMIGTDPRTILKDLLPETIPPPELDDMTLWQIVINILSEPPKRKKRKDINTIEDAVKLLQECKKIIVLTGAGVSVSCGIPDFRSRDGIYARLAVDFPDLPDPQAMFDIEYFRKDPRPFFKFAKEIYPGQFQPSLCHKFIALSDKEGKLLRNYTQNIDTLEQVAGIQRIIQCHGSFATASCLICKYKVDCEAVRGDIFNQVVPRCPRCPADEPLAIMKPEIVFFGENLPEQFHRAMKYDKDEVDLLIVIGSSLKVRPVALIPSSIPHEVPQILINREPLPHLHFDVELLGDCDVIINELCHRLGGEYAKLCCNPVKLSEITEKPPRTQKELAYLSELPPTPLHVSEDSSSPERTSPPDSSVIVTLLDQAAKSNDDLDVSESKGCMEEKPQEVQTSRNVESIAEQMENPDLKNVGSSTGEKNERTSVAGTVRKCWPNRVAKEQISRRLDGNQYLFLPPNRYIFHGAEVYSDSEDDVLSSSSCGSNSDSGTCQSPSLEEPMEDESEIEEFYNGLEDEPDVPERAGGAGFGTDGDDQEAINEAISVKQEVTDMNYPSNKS
Test: Trp mass spectrometry assay of SIRT1 activation
Format: biochemical
Conditions: for TRP Activity (EC1.5) / Emax: Trp peptide assay; for TRP Activity (EC1.5): EC1.5 = concentration that results in 150% activation of SIRT1; for Emax: maximum activity relative to control (100%), read-out: TRP MAX RESP (percent maximum fold activation)
Summary of the method: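 N-terminal His-tagged human SIRT1 (10 nM, E. coli BL21(DE3)) with 0.5 μM Ac-RHKK(Ac)W-NH2 peptide and 120 μM βNAD+, 25 min at 25 °C in HEPES pH 7.5, formic acid stop. OAADPR or deacetylated peptide quantified by mass spectrometry; EC1.5 (50% activity increase over control) and Percent Maximum Activation reported.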

[1] = concentration giving 150% activation of SIRT1, Trp peptide substrate
[2] = Trp peptide substrate, concentration giving 150% activation of SIRT1
[3] = Trp mass spectrometry assay, concentration of test compound giving 150% activation of SIRT1
[4] = Trp mass spectrometry assay, EC1.5 = concentration of test compound that results in 150% activation of SIRT1

SMILES	TRP Activity (EC1.5)	Emax [%]	further results
O=C(Nc1cccnn1)N1c2nc(-c3cncc(C(F)(F)F)c3)ccc2N2C[C@@H](O)[C@H]1C2 [Example 701]	–	–	Tryp AVG EC1.5 (μM) [1]: B (B (EC1.5 1-25 μM))
O=C(NC1CCOC1)c1ccc2c(n1)N(C(=O)Nc1ccccn1)[C@H]1CCN2C1 (stereo partly drawn) [(9S)-5-N-(oxolan-3-yl)-8-N-(pyridin-2-yl)-1,6,8-triazatricyclo[7.2.1.0 {2,7}]dodeca-2(7),3,5-triene-5,8-dicarboxamide]	B (B (EC1.5 1-25 μM))	> 150	–
Cc1cc(C(F)(F)F)nc(NC(=O)N2c3nc(-c4cccc(C(F)(F)F)c4)ccc3N3CC[C@H]2C3)n1 [Example 94]	–	–	Tryp AVG EC1.5 (μM) [2]: B (B (EC1.5 1-25 μM))
O=C(Nc1cccnc1)N1c2nc(-c3cccc(C(F)(F)F)c3)ccc2N2CCC[C@H]1C2 [314 (5)]	–	–	Tryp AVG EC1.5 (μM) [3]: A (A (EC1.5<1 μM))
O=C(Nc1cnccn1)N1c2nc(-c3ccnc(N4CCC(F)(F)C4)c3)ccc2N2CC[C@H]1C2 [Example 423]	–	–	Tryp AVG EC1.5 (μM) [4]: A (A (EC1.5<1 μM))
O=C(Nc1cccnc1)N1c2nc(-c3cccc(C(F)(F)F)c3)ccc2N2CCC1CC2 [Example 485]	–	–	Tryp AVG EC1.5 (μM) [4]: A (A (EC1.5<1 μM))
O=C(Nc1ccncn1)N1c2nc(-c3cncc(C(F)(F)F)c3)ccc2N2CCC[C@H]1C2 [Example 393]	–	–	Tryp AVG EC1.5 (μM) [3]: A (A (EC1.5<1 μM))
O=C(Nc1cc(-c2cnco2)ccn1)N1c2nc(-c3cncc(F)c3)ccc2N2CC[C@H]1C2 [Example 727]	–	–	Tryp AVG EC1.5 (μM) [1]: A (A (EC1.5<1 μM))
Cc1cnccc1NC(=O)N1c2nc(C3CCCC(C(F)(F)F)C3)ccc2N2CC[C@H]1C2 (stereo partly drawn) [Example 100]	–	–	Tryp AVG EC1.5 (μM) [2]: B (B (EC1.5 1-25 μM))
COc1cc(NC(=O)N2c3nc(-c4cccc(Cl)c4)ccc3N3CCC2CC3)nc(OC)n1 [Example 523]	–	–	Tryp AVG EC1.5 (μM) [4]: A (A (EC1.5<1 μM))
COC(=O)CNC(=O)c1ccc2c(n1)N(C(=O)Nc1ccccn1)[C@H]1CCN2C1 [methyl 2-{[(9S)-8-[(pyridin-2-yl)carbamoyl]-1,6,8-triazatricyclo[7.2.1.0^{2,7}]dodeca-2(7),3,5-trien-5-yl]formamido}acetate]	B (B (EC1.5 1-25 μM))	> 150	–
O=C(Nc1cccnc1)N1c2nc(-c3cccc(N4CCOCC4)c3)ccc2N2CCC[C@H]1C2 [Example 538]	–	–	Tryp AVG EC1.5 (μM) [4]: A (A (EC1.5<1 μM))
Cc1cc(-c2ccc3c(n2)N(C(=O)Nc2ccc4nn(C)cc4c2)[C@H]2CCCN3C2)ccn1 [(9S)-N-(2-methyl-2H-indazol-5-yl)-5-(2-methylpyridin-4-yl)-1,6,8-triazatricyclo[7.3.1.0 {2,7}]trideca-2,4,6-triene-8-carboxamide]	A (A (EC1.5<1 μM))	> 150	–
O=C(Nc1cc(O)ncn1)N1c2nc(N3CCCC(C(F)(F)F)C3)ccc2N2CCC[C@H]1C2 (stereo partly drawn) [Example 361]	–	–	Tryp AVG EC1.5 (μM) [3]: A (A (EC1.5<1 μM))
COCC(NC(=O)c1ccc2c(n1)N(C(=O)Nc1ccccn1)[C@H]1CCN2C1)C(F)(F)F (stereo partly drawn) [(9S)-8-N-(pyridin-2-yl)-5-N-(1,1,1-trifluoro-3-methoxypropan-2-yl)-1,6,8-triazatricyclo[7.2.1.0^{2,7}]dodeca-2(7),3,5-triene-5,8-dicarboxamide]	A (A (EC1.5<1 μM))	> 150	–
CC(C)(C)OC(=O)NCc1ccc(NC(=O)N2c3nc(-c4cccc(C(F)(F)F)c4)ccc3N3CC[C@H]2C3)cc1 [Example 793]	–	–	Tryp AVG EC1.5 (μM) [1]: B (B (EC1.5 1-25 μM))
O=C(Nc1ccc(Oc2ccccc2)cc1)N1c2nc(-c3cccc(C(F)(F)F)c3)ccc2N2CC[C@H]1C2 [Example 641]	–	–	Tryp AVG EC1.5 (μM) [1]: C (C (EC1.5>25 μM))
COc1cnc(NC(=O)N2c3nc(-c4ccnc(C)c4)ccc3N3CC[C@H]2C3)cn1 [Example 500]	–	–	Tryp AVG EC1.5 (μM) [4]: A (A (EC1.5<1 μM))
Cc1cc(C)nc(NC(=O)N2c3nc(-c4cccc(Cl)c4)ccc3N3CC[C@H]2C3)c1 [Example 105]	–	–	Tryp AVG EC1.5 (μM) [2]: B (B (EC1.5 1-25 μM))
O=C(NCc1ccccc1)N1c2nc(-c3cccc(C(F)(F)F)c3)ccc2N2CC[C@H]1C2 [Example 597]	–	–	Tryp AVG EC1.5 (μM) [4]: B (B (EC1.5 1-25 μM))
O=C(Nc1cccc(-c2ccsc2)n1)N1c2nc(-c3cccc(C(F)(F)F)c3)ccc2N2CC[C@H]1C2 [Example 653]	–	–	Tryp AVG EC1.5 (μM) [1]: A (A (EC1.5<1 μM))
N#Cc1cccc(-c2ccc3c(n2)N(C(=O)Nc2cncc(F)c2)[C@H]2CCCN3C2)c1 [Example 353]	–	–	Tryp AVG EC1.5 (μM) [3]: A (A (EC1.5<1 μM))
COc1cc(NC(=O)N2c3nc(-c4cncc(C(F)(F)F)c4)ccc3N3C[C@@H](O)[C@H]2C3)nc(OC)n1 [Example 704]	–	–	Tryp AVG EC1.5 (μM) [1]: B (B (EC1.5 1-25 μM))
O=C(Nc1cccc(-c2cnco2)c1)N1c2cc(-c3cccc(C(F)(F)F)c3)ccc2N2CC[C@H]1C2 [Example 786]	–	–	Tryp AVG EC1.5 (μM) [1]: B (B (EC1.5 1-25 μM))
O=C(Nc1cccnn1)N1c2nc(-c3cccc(C(F)(F)F)c3)ccc2N2C[C@@H](O)[C@H]1C2 [Example 631]	–	–	Tryp AVG EC1.5 (μM) [1]: B (B (EC1.5 1-25 μM))
Cc1cc(-c2ccc3c(n2)N(C(=O)Nc2nc(C)c(C)s2)[C@H]2CCN3C2)ccn1 [Example 481]	–	–	Tryp AVG EC1.5 (μM) [4]: A (A (EC1.5<1 μM))
O=C(Nc1ccncn1)N1c2nc(-c3cccc(Cl)c3)ccc2N2CCC1CC2 [Example 534]	–	–	Tryp AVG EC1.5 (μM) [4]: B (B (EC1.5 1-25 μM))
O=C(O[C@@H]1CN2C[C@H]1N(C(=O)Nc1ccccn1)c1nc(-c3cccc(C(F)(F)F)c3)ccc12)c1ccccc1 [Example 603]	–	–	Tryp AVG EC1.5 (μM) [4]: C (C (EC1.5>25 μM))
CN(C)c1ccc(-c2ccc3c(n2)N(C(=O)Nc2cnccn2)[C@H]2CCN3C2)cn1 [Example 458]	–	–	Tryp AVG EC1.5 (μM) [4]: B (B (EC1.5 1-25 μM))

Continued, in another order:

TRP Activity (EC1.5)	Emax [%]	SMILES	further results
B (B (EC1.5 1-25 μM))	> 150	C[C@H]1CN(c2ccc3c(n2)N(C(=O)Nc2cnccn2)[C@H]2CCN3C2)CCO1 [(9S)-5-[(2S)-2-methylmorpholin-4-yl]-N-(pyrazin-2-yl)-1,6,8-triazatricyclo[7.2.1.0 {2,7}]dodeca-2,4,6-triene-8-carboxamide]	–
B (B (EC1.5 1-25 μM))	> 150	CNc1cc(-c2ccc3c(n2)N(C(=O)Nc2cnccn2)[C@H]2CCN3C2)ccn1 [(9S)-5-[2-(methylamino)pyridin-4-yl]-N-(pyrazin-2-yl)-1,6,8-triazatricyclo[7.2.1.0 {2,7}]dodeca-2(7),3,5-triene-8-carboxamide]	–
B (B (EC1.5 1-25 μM))	> 150	O=C(Nc1cnccn1)N1c2nc(-c3ccnc(CO)c3)ccc2N2CC[C@H]1C2 [(9S)-5-[2-(hydroxymethyl)pyridin-4-yl]-N-(pyrazin-2-yl)-1,6,8-triazatricyclo[7.2.1.0 {2,7}]dodeca-2(7),3,5-triene-8-carboxamide]	–
B (B (EC1.5 1-25 μM))	> 150	Cc1cc(-c2ccc3c(n2)N(C(=O)Nc2cnccn2)[C@H]2CCN3C2)cnn1	–
B (B (EC1.5 1-25 μM))	> 150	CCOc1cnc(NC(=O)N2c3nc(-c4ccnc(C)c4)ccc3N3CC[C@H]2C3)cn1 [(9S)-N-(5-ethoxypyrazin-2-yl)-5-(2-methylpyridin-4-yl)-1,6,8-triazatricyclo[7.2.1.0 {2,7}]dodeca-2(7),3,5-triene-8-carboxamide]	–
A (A (EC1.5<1 μM))	> 150	CCOc1cncc(NC(=O)N2c3nc(-c4ccnc(C)c4)ccc3N3CC[C@H]2C3)n1 [(9S)-N-(6-ethoxypyrazin-2-yl)-5-(2-methylpyridin-4-yl)-1,6,8-triazatricyclo[7.2.1.0 {2,7}]dodeca-2(7),3,5-triene-8-carboxamide]	–
B (B (EC1.5 1-25 μM))	> 150	Cc1ncc(-c2ccc3c(n2)N(C(=O)Nc2cnccn2)[C@H]2CCN3C2)o1 [(9S)-5-(2-methyl-1,3-oxazol-5-yl)-N-(pyrazin-2-yl)-1,6,8-triazatricyclo[7.2.1.0 {2,7}]dodeca-2(7),3,5-triene-8-carboxamide]	–
A (A (EC1.5<1 μM))	> 150	Cc1cc(-c2ccc3c(n2)N(C(=O)Nc2cncc(C4CC4)n2)[C@H]2CCN3C2)ccn1 [(9S)-N-(6-cyclopropylpyrazin-2-yl)-5-(2-methylpyridin-4-yl)-1,6,8-triazatricyclo[7.2.1.0 {2,7}]dodeca-2(7),3,5-triene-8-carboxamide]	–
B (B (EC1.5 1-25 μM))	> 150	Cc1cc(-c2ccc3c(n2)N(C(=O)Nc2cnccn2)[C@@H]2CCN3C2)ccn1 [(9R)-5-(2-methylpyridin-4-yl)-N-(pyrazin-2-yl)-1,6,8-triazatricyclo[7.2.1.0 {2,7}]dodeca-2(7),3,5-triene-8-carboxamide]	–
